# Test results as given in patent EP0345356A1, “PLATINUM COMPLEX AND THERAPEUTIC AGENT FOR MALIGNANT TUMOR” (TORAY INDUSTRIES, INC., priority 1987, dated 1989).
# “And” between values parts separate entries of the source, which are not always exact repeats. Identical values can stand only once.
# Assays:
# Slc:ICR mice = test: Acute toxicity test in mice (LD50, Miller-Tainter method); type: in vivo; settings: intraperitoneal, Slc:ICR mice (male), death rate on the 14th day
# Procedure: Platinum complexes to be tested was administered intraperitoneally to Slc:ICR mice (male, 5 weeks old, 6 mice/group). Each complex was used in the form of a solution or suspension in a 0.05% "Tween 80" in saline. The LD50 value was calculated by the Miller-Tainter method from the death rate on the 14th day from the date of the administration.
# [1] = system: L1210 murine leukemia cells; test: Antitumor activity against L1210 leukemia in mice; type: in vivo, CDF1 mice; settings: for Survival days (mean ± SD) / T/C (%): given on 1st, 5th and 9th days after tumor inoculation; for Survival rate: number of 30 days survival mice / group
# Procedure: L1210 murine leukemia cells which were subcultured in DBA/2 mouse were inoculated intraperitoneally into CDF1 mice at 10^5 cells/mouse. Each experimental group was composed of 6-10 mice (male, 6-weeks old). Each test compound was administered three times, i.e., on the 1st, 5th and 9th days after tumor inoculation. […] Each compound was dissolved or suspended in 0.05% "Tween 80" solution and administered in mice.
compound,measurement,setting,value
"NC1CCCCC1N.O=C([O-])C=CC(=O)Nc1cccc(O)c1.[OH-].[Pt+2] [XXIX-4, N-(3-hydroxyphenyl)maleamido-hydroxo(trans-ℓ-dach)-platinum(II)]",LD50 values,Slc:ICR mice,62 mg/kg
"COC(=O)C(Cc1ccccc1)NC(=O)C=CC(=O)[O-].NC1CCCCC1N.[OH-].[Pt+2] (stereo not drawn) [XXIX-2, N-(dℓ-2-phenyl-1-methoxycarbonylethyl)maleamido-hydroxo(trans-i-dach)platinum(II)]",LD50 values,Slc:ICR mice,>200 mg/kg
2-Propenylacrylate-hydroxo(trans-ℓ-dach)platinum(II) [XXXI-2],LD50 values,Slc:ICR mice,>200 mg/kg
"NC1CCCCC1N.O=C([O-])c1ccco1.O=C([O-])c1ccco1.[Pt+2] (stereo not drawn) [XXIV-1, Bis(2-furancarboxylato)(trans-ℓ-dach)platinum(II)]",Survival days (mean ± SD),[1]; Dose 1 mg/kg,9.5 ± 0.8 days
same,T/C (%),[1]; Dose 1 mg/kg,117%
same,Survival rate,[1]; Dose 1 mg/kg,0/6
same,Survival days (mean ± SD),[1]; Dose 10 mg/kg,14.2 ± 2.9 days
same,T/C (%),[1]; Dose 10 mg/kg,175%
same,Survival rate,[1]; Dose 10 mg/kg,0/6
same,Survival days (mean ± SD),[1]; Dose 25 mg/kg,20.2 ± 4.9 days
same,T/C (%),[1]; Dose 25 mg/kg,249%
same,Survival rate,[1]; Dose 25 mg/kg,1/6
same,Survival days (mean ± SD),[1]; Dose 50 mg/kg,17.3 ± 6.3 days
same,T/C (%),[1]; Dose 50 mg/kg,214%
same,Survival rate,[1]; Dose 50 mg/kg,1/6
same,Survival days (mean ± SD),[1]; Dose 100 mg/kg,9.0 ± 1.5 days
same,T/C (%),[1]; Dose 100 mg/kg,111%
same,Survival rate,[1]; Dose 100 mg/kg,0/6
same,Survival days (mean ± SD),[1]; Dose 200 mg/kg,6.0 days
same,T/C (%),[1]; Dose 200 mg/kg,74%
same,Survival rate,[1]; Dose 200 mg/kg,0/6
same,LD50 values,Slc:ICR mice,87 mg/kg
"N.N.[Cl][Pt][Cl] [C D D P, cis-diamminedichloro platinum(II), reference compound]",Survival days (mean ± SD),[1]; Dose 0.5 mg/kg,18.9 ± 5.8 days
same,T/C (%),[1]; Dose 0.5 mg/kg,225%
same,Survival rate,[1]; Dose 0.5 mg/kg,0/6
same,Survival days (mean ± SD),"[1]; Dose 2.5 mg/kg, 2.5 mg/kg",14.5 ± 2.5 days and 15.5 ± 1.4 days and 13.0 ± 3.1 days and 14.8 ± 2.7 days
same,T/C (%),"[1]; Dose 2.5 mg/kg, 2.5 mg/kg",175% and 191% and 181%
same,Survival rate,[1]; Dose 2.5 mg/kg,0/6
same,Survival days (mean ± SD),"[1]; Dose 5 mg/kg, 5 mg/kg",16.3 ± 1.2 days and 18.2 ± 0.4 days and 18.8 ± 4.3 days
same,T/C (%),"[1]; Dose 5 mg/kg, 5 mg/kg",201% and 214% and 232%
same,Survival rate,[1]; Dose 5 mg/kg,0/6
same,Survival days (mean ± SD),"[1]; Dose 7.5 mg/kg, 7.5 mg/kg",19.0 ± 8.7 days and 19.2 ± 3.0 days and 20.2 ± 4.8 days and 18.7 ± 3.1 days
same,T/C (%),"[1]; Dose 7.5 mg/kg, 7.5 mg/kg",229% and 237% and 238% and 231%
same,Survival rate,"[1]; Dose 7.5 mg/kg, 7.5 mg/kg",1/6 and 0/6
"NC1CCCCC1N.O=C([O-])c1ccc(=O)oc1.O=C([O-])c1ccc(=O)oc1.[Pt+2] [XXII-1, bis(2-pyrone-5-carboxylato)(trans-ℓ-dach)platinum(II)]",Survival days (mean ± SD),"[1]; Dose 1 mg/kg, 1 mg/kg",9.0 ± 0.9 days and 11.3 ± 0.8 days
same,T/C (%),"[1]; Dose 1 mg/kg, 1 mg/kg",108% and 140%
same,Survival rate,[1]; Dose 1 mg/kg,0/6
same,Survival rate,"[1]; Dose 10 mg/kg, 10 mg/kg",0/6 and 2/6
same,Survival rate,"[1]; Dose 25 mg/kg, 25 mg/kg",0/6 and 3/6
same,Survival days (mean ± SD),"[1]; Dose 50 mg/kg, 50 mg/kg",15.2 ± 3.1 days and 17.8 ± 2.8 days
same,T/C (%),"[1]; Dose 50 mg/kg, 50 mg/kg",183% and 220%
same,Survival rate,[1]; Dose 50 mg/kg,0/6
same,Survival days (mean ± SD),"[1]; Dose 100 mg/kg, 100 mg/kg",20.7 ± 7.2 days and 12.3 ± 2.7 days
same,T/C (%),"[1]; Dose 100 mg/kg, 100 mg/kg",249% and 152%
same,Survival rate,"[1]; Dose 100 mg/kg, 100 mg/kg",1/6 and 0/6
same,Survival rate,[1]; Dose 200 mg/kg,0/6
same,LD50 values,Slc:ICR mice,>200 mg/kg
N-(4-methoxycarbonylphenyl)maleamido-hydroxo(trans-A-dach)platinum(II) [XXIX-3],LD50 values,Slc:ICR mice,48 mg/kg
"N.N.O=C([O-])C1(C(=O)[O-])CCC1.[Pt+2] [C B D C A, cis-diammine-1,1-cyclobutanedicarboxylate platinum(II), reference compound]",Survival days (mean ± SD),[1]; Dose 1 mg/kg,8.3 ± 0.5 days
same,T/C (%),[1]; Dose 1 mg/kg,98%
same,Survival rate,[1]; Dose 1 mg/kg,0/10
same,Survival days (mean ± SD),[1]; Dose 10 mg/kg,9.3 ± 0.5 days
same,T/C (%),[1]; Dose 10 mg/kg,109%
same,Survival rate,[1]; Dose 10 mg/kg,0/10
same,Survival days (mean ± SD),[1]; Dose 25 mg/kg,10.1 ± 1.3 days
same,T/C (%),[1]; Dose 25 mg/kg,119%
same,Survival rate,[1]; Dose 25 mg/kg,0/10
same,Survival days (mean ± SD),[1]; Dose 50 mg/kg,13.1 ± 2.3 days
same,T/C (%),[1]; Dose 50 mg/kg,156%
same,Survival rate,[1]; Dose 50 mg/kg,0/10
same,Survival days (mean ± SD),[1]; Dose 100 mg/kg,14.1 ± 3.7 days
same,T/C (%),[1]; Dose 100 mg/kg,166%
same,Survival rate,[1]; Dose 100 mg/kg,0/10
same,Survival days (mean ± SD),[1]; Dose 200 mg/kg,9.6 ± 0.7 days
same,T/C (%),[1]; Dose 200 mg/kg,113%
same,Survival rate,[1]; Dose 200 mg/kg,0/10
"O=C([O][Pt]1([O]C(=O)c2ccc(N3C(=O)C=CC3=O)cc2)[NH]C2CCCCC2[NH]1)c1ccc(N2C(=O)C=CC2=O)cc1 (stereo not drawn) [XXVIII-1, Bis[N-(4-carboxyphenyl)maleimido](trans-ℓ-dach)-platinum(II)]",LD50 values,Slc:ICR mice,70 mg/kg
"NC1CCCCC1N.O=C([O][Pt][O]C(=O)C1(O)CC(O)C(O)C(O)C1)C1(O)CC(O)C(O)C(O)C1 [XXXII-1, Bis(lR,3R,4R,5R-tetrahydroxycyclohexanecarboxylato)-(trans-ℓ-dach)platinum(II)]",LD50 values,Slc:ICR mice,>200 mg/kg
"O=C(C=Cc1ccc(C(F)(F)F)cc1)[O][Pt]1([OH])[NH]C2CCCCC2[NH]1 (stereo not drawn) [XXXI-5, β-(4-trifluourmethylphenyl)acrylate-hydroxo(trans-ℓ-dach)platinum(II)]",LD50 values,Slc:ICR mice,>200 mg/kg
Bis(2-propenylacrylate)(trans-ℓ-dach)platinum(II) [XXX-1],LD50 values,Slc:ICR mice,77 mg/kg
"CC1(C(=O)[O][Pt][O]C(=O)C2(C)CCC3(C)CCC4(C)C(=CC(=O)C5C6(C)CCC(O)C(C)(C)C6CCC54C)C3C2)CCC2(C)CCC3(C)C(=CC(=O)C4C5(C)CCC(O)C(C)(C)C5CCC43C)C2C1.NC1CCCCC1N.O.O.O.O (stereo not drawn) [XXXV-1, Bis(β-glycyrrhetinato)(trans-ℓ-dach)platinum(II)-tetrahydrate]",LD50 values,Slc:ICR mice,>150 mg/kg
2-Furanacrylate-hydroxo(trans-i-dach)platinum(II) [XXXI-3],LD50 values,Slc:ICR mice,>200 mg/kg
"COCCOCC(=O)[O][Pt][O]C(=O)COCCOC.NC1CCCCC1N [XXVII-1, Bis(methoxyethoxymethylcarboxylato)(trans-ℓ-dach)-platinum(II)]",LD50 values,Slc:ICR mice,50 mg/kg
"NC1CCCCC1N.O=C(CN1C(=O)c2ccccc2C1=O)NCC(=O)[O][Pt][O]C(=O)CNC(=O)CN1C(=O)c2ccccc2C1=O [XXVI-1, Bis(phthaloylglycylglycinato)(trans-ℓ-dach)-platinum(II)]",LD50 values,Slc:ICR mice,>200 mg/kg
"CC1(C)CC(=O)C=C(C(=O)[O-])O1.CC1(C)CC(=O)C=C(C(=O)[O-])O1.NC1CCCCC1N.[Pt+2] [XXV-1, bis(3,4-dihydro-2,2-dimethyl-4-oxo-2H-pyrane-6-carboxylato) (trans-k-dach)platinum(II)]",LD50 values,Slc:ICR mice,192 mg/kg
"NC1CCCCC1N.O=C([O-])CCc1ccc(O)cc1.O=C([O-])CCc1ccc(O)cc1.[Pt+2] [XXXIV-1, Bis(3-(4-hydroxyphenyl)propionato)(trans-ℓ-dach)-platinum(II)]",LD50 values,Slc:ICR mice,90 mg/kg
"CCOC(=O)CNC(=O)C=CC(=O)[O-].NC1CCCCC1N.[OH-].[Pt+2] [XXIX-1, N-(ethoxycarbonylmethyl)maleamido-hydroxo(trans-ℓ- dach)platinum(II)]",LD50 values,Slc:ICR mice,>200 mg/kg
"O=C(C=Cc1ccc(O)cc1)[O][Pt]1([OH])[NH]C2CCCCC2[NH]1 (stereo not drawn) [XXXI-4, β-(4-hydroxyphenyl)acrylate-hydroxo(trans-ℓ-dach)-platinum(II)]",LD50 values,Slc:ICR mice,117 mg/kg
